Measurements as given in ChEMBL document CHEMBL5053509, “Development of a Selective Dual Discoidin Domain Receptor (DDR)/p38 Kinase Chemical Probe” (J Med Chem, 2021).

Assay: Metabolic stability in human liver microsomes assessed as parent compound remaining after 240 mins incubation by LC-MS/MS analysis
Format: ADME, Microsome
Conditions: read-out: Stability

| remaining at 4 h | Structure (SMILES) |
| --- | --- |
| 44% | CS(=O)(=O)N1CCC[C@H](NC(=O)[C@H](CCC2CCCCC2)NC(=O)c2ccc(CNC(=O)c3cnn(-c4ccccc4)c3N)cc2)C1 |
| 44% | CS(=O)(=O)N1CCCC(NC(=O)[C@H](CCC2CCCCC2)NC(=O)c2ccc(CNC(=O)c3cnc4ccccn34)cc2)C1 (mixture of isomers) [SR-302] |
